Values quoted from earlier work in US20240139231A1, “METFORMIN COMPOSITIONS AND METHODS FOR TREATMENT OF DIABETES” (priority 2018, published 2024).

Experiments:
[1] = 500 mg/day co-administered with metformin, 12 weeks

| Compound | reduction of blood sugar levels, HbA1c measure, relative to metformin in combination with a placebo (type 2 diabetes mellitus; [1]) [%] | reduction of blood sugar levels, fasting measure, relative to metformin in combination with a placebo (type 2 diabetes mellitus; [1]) [%] | reduction of blood sugar levels, post-prandial measure, relative to metformin in combination with a placebo (type 2 diabetes mellitus; [1]) | effect on blood sugar when co-administered in lower amounts (type 2 diabetes mellitus; lower amounts, earlier reports by others) | time to maximum effect (blood glucose levels; depending on the dose) | low threshold dose at which effects on blood glucose levels become significant (blood glucose levels; in vivo) | time until effects begin to appear after the user starts taking the medication (blood glucose levels; in vivo) [h] |
| --- | --- | --- | --- | --- | --- | --- | --- |
| O=C1O[C@H]([C@@H](O)CO)C(O)=C1O [ascorbic acid] | 1.5 | 7 | ca. 3% | no effect | – | – | – |
| CN(C)C(=N)NC(=N)N [metformin, Metformin] | – | – | – | – | within four to five days | 1,500 mg/day | ≤ 48 |
